In one data set the test system is HT29 tumor xenografts. The data set is described as follows: Levels of conjugate and released SN-38 in tumor versus plasma, HT29 xenograft-bearing rats.
Data set [1] is described as follows: Plasma concentration of PLX038, released SN-38 and SN-38G in rats bearing HT29 tumor xenografts (HPLC with fluorescence monitoring). The data set is classed as in vivo. As to conditions: rat with HT29 xenograft, ~200 mg/kg PLX038, conjugate.
The subject of another data set is MX-1 tumor xenografts. The data set is described as follows: Efficacy of PLX038A (PEG-SN38) in mice bearing MX-1 tumor xenografts. As to conditions: 137 µmole/kg irinotecan single dose.
The next data set has as its system HT-29 xenograft. As to conditions: irinotecan control.
Where [2] appears, read: 14 days post-dosing, single 200 mg/kg PLX038.
[3] abbreviates: administered dose 200 mg/kg PLX038.

Experimental for HT-29 xenograft: Varying doses of the unlabeled PEG~(SN-38)4 conjugate are injected into animals.

For `CCc1c2c(nc3ccc(O)cc13)-c1cc3c(c(=O)n1C2)COC(=O)[C@]3(O)CC` [SN-38], in the data set with HT29 tumor xenografts (setting [2]), the accumulation in tumors entry is listed as “high accumulation” and the serum levels entry is listed as “undetectable”. In the data set on HT29 tumor xenografts (setting [3]), the “concentration of released SN-38 in the tumor” value is reported as “about 80 pm/g” and the “released SN-38 in the circulation” value is recorded as “barely detectable”. Further, in the data set on HT29 tumor xenografts (lower dosages of PLX038), the “conjugate / free drug in the plasma” value is listed as “not detected in the plasma” and the “conjugate / free drug in the tumor” value is “significant concentrations”. The “half-life in plasma / systemic circulation” value in data set [1] came to 50 h.

Take `CCc1c2c(nc3ccc(OC(=O)N4CCC(N5CCCCC5)CC4)cc13)-c1cc3c(c(=O)n1C2)COC(=O)[C@]3(O)CC` [irinotecan]: in the data set with MX-1 tumor xenografts, the “effect on tumor growth compared with vehicle” value was “only somewhat better than vehicle”. For the same compound, the “tumor inhibition relative to PLX038” value with HT-29 xenograft is “near-equal tumor inhibition”. In the data set on HT-29 xenograft (rat HT-29 xenograft model, PLX038 single 200 mg/kg), the “gastrointestinal (GI) toxicity” value is given as “significant GI toxicity”.

The values are drawn from patent US20230321286A1, “PROTOCOL FOR MINIMIZING TOXICITY OF COMBINATION DOSAGES AND IMAGING AGENT FOR VERIFICATION” (priority 2018, published 2023).
